By Ki is commonly meant a measure of affinity in units of concentration, obtained from inhibition or displacement. A word on the EC50: it is the concentration at which the effect is half-maximal. A high value points to weaker potency.

No end group written: not given here.

The values below come from patent US7029857B1, “Processes for obtaining compounds employing SNORF72 receptors” (H. Lundbeck A/S, priority 1999, dated 2006).

For assay [1], the target named is T1, SNORF72 (Homo sapiens, UniProt Q9GZQ4, A395T).
T1 construct: expressed in transfected cells; host or cells: COS-7 (transient, DEAE-dextran)
In words: Displacement of [125I]rat NMU-23 binding in SNORF72-transfected COS-7 membranes. The conditions noted are these: binding affinity, SNORF72-transfected COS-7 cells (Table 1A); read-out: SNORF72 Avg Ki. How it is done:
The specifics of preparing such cell membranes may in some cases be determined by the nature of the ensuing assay but typically involve harvesting whole cells and disrupting the cell pellet by sonication in ice cold buffer (e.g. 20 mM Tris HCl, mM EDTA, pH 7.4 at 4° C.). The resulting crude cell lysate is cleared of cell debris by low speed centrifugation at 200×g for 5 min at 4° C. The cleared supernatant is then centrifuged at 40,000×g for 20 min at 4° C., and the resulting membrane pellet is washed by suspending in ice cold buffer and repeating the high speed centrifugation step. The final washed membrane pellet is resuspended in assay buffer. Protein concentrations are determined by the method of Bradford (1976) using bovine serum albumin as a standard. The membranes may be used immediately or frozen for later use.
Radioligand binding assays were performed by diluting membranes prepared from cells expressing the receptor in 50 mM Tris buffer (pH=7.4 at 0° C.) containing 0.1% bovine serum albumin (Sigma), aprotinin (0.005 mg/ml, Boehringer Mannheim) and bestatin (0.1 mM, Sigma) as protease inhibitors. The final protein concentration in the assay was 12–40 μg/ml. […] The bound ligand was separated from free by filtration through GF/B filters presoaked in 0.5% polyethyleneimine (PEI), using a Tomtec (Wallac) vacuum filtration device. After addition of Ready Safe (Beckman) scintillation fluid, bound radioactivity was quantitated using a Trilux (Wallac) scintillation counter (approximately 40% counting efficiency of bound counts). Data was fit to non-linear curves using GraphPad Prism.
In this manner, agonist or antagonist compounds that bind to the receptor may be identified as they inhibit the binding of the labeled ligand to the membrane protein of cells expressing the said receptor. Non-specific binding was defined as the amount of radioactivity remaining after incubation of membrane protein in the presence of 100 nM of the unlabeled peptide corresponding to the radioligand used. In equilibrium saturation binding assays membrane preparations or intact cells transfected with the receptor are incubated in the presence of increasing concentrations of the labeled compound to determine the binding affinity of the labeled ligand.
On the technique in general: In a radioligand displacement assay an active substance lowers the binding of a labelled ligand.

Assay [2] deals with T1, SNORF72. In words: Intracellular Ca2+ release (FLIPR) in SNORF72-transfected COS-7 cells. The following applies: SNORF72-transfected COS-7 cells, peptides at 300 nM (FIG. 8). Format: cell-based.
Target sequence in this assay (Q9GZQ4 whole entry A395T): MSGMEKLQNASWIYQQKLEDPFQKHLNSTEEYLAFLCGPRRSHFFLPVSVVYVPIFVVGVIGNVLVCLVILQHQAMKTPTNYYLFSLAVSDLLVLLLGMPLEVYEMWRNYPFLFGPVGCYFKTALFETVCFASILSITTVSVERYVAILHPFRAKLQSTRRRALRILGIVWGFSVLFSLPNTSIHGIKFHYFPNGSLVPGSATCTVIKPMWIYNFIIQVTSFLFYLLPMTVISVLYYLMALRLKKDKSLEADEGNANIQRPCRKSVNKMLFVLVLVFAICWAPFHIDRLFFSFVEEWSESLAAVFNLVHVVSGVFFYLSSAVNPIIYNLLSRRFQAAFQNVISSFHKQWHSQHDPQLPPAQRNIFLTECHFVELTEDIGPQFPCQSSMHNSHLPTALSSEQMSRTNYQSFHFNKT
The next assay concerns the target T2, SNORF62 (Homo sapiens, UniProt Q9HB89).
T2 sequence (Q9HB89 1-426): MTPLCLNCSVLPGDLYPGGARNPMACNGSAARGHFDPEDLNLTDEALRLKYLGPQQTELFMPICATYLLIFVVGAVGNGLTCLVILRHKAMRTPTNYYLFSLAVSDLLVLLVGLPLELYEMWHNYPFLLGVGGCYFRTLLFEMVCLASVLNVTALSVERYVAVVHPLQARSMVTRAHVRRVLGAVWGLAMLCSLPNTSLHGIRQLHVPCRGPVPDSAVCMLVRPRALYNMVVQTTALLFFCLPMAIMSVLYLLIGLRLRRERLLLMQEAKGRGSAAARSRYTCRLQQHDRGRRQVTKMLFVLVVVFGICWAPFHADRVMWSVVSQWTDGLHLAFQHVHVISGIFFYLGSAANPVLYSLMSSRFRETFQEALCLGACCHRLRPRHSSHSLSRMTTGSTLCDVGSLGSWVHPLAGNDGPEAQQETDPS
In words: Intracellular Ca2+ release (FLIPR) in SNORF62-transfected COS-7 cells. On the set-up: The SNORF62 cDNA codes for a protein of 426 amino acids; expressed in transfected cells; host or cells: COS-7 (transient, DEAE-dextran). In kind it is cell-based.

On to “FRVDEEFQSPFASQSRGYFLFRPRN-NH2 [human NMU-25, FRVDEEFQSPFASQSRGYFLFRPRN—NH2]”, for which the Ki on SNORF72 [1] was 3 nM. Further, the “stimulation of intracellular Ca2+ release” value at SNORF72 [2] is “stimulated”. The “Ca2+ release response following pretreatment with pertussis toxin” value on SNORF62 (pertussis toxin 100 ng/ml for 18-20 hours, n=2, data not shown) is reported as “present”. The EC50 at SNORF62 (stimulation of Ca2+ release, SNORF62-transfected COS-7 cells, n = 2-7 (Table 1A)) worked out at 4 ± 1.3 nM.
